Test results reported in patent US20240122932A1, “Methods of Treating B-Cell Malignancy Using Bcl-2 Inhibitor” (BeiGene Switzerland GmbH, priority 2021, published 2024).

Test system: RS4;11 Bcl-2G101V KI acute lymphoblastic leukemia (ALL) subcutaneous xenograft
Assay: RS4;11 Bcl-2G101V KI ALL subcutaneous xenograft model
Assay type: in vivo, NCG mice
Method: The RS4;11 Bcl-2G101V KI cells are of acute lymphoblastic leukemia (ALL) origin and were screened in house. Cells were grown in RPMI 1640 medium (Corning, Cat #10-040-CVR), supplemented with 10% (v/v) fetal bovine serum (Gibco, Cat #10099-141C), and 100 μg/mL of penicillin and streptomycin (Gibco, Cat #15140-122). […] Five to six-week-old female NCG mice were supplied by GemPharmatech Co., Ltd, Jiangsu, China. All animals were maintained under specific pathogen free (SPF) “full barrier” condition with free access to food and water. Mice were group-housed under a 12 h light:dark cycle (lights on at 08:00 h), at a temperature of 20-26° C. and 37-62% humidity in WC cages (Lingyunboji (Beijing) Technology Co., Ltd.). Mice were fed with complete granulated feed with Co60 radio sterilization (Beijing Ke Ao Xie Li Feed Co., Ltd.).
Re-suspended cells were placed on ice prior to inoculation. The right front flank region of each mouse was cleaned with 75% ethanol prior to cell inoculation. Each animal was injected subcutaneously with 1×10^7 cells in 200 μL of cell suspension in the right front flank via a 26-gauge needle. After implantation, primary tumor volume was measured in two dimensions using a caliper.
Animals were randomly assigned into 7 groups with 8 mice per group according to body weight and tumor volume (around 300 mm^3). The groups consisted of vehicle group, 15, 50 and 100 mg/kg of venetoclax with QD dosing, 15, 50 and 100 mg/kg of Compound 1 with QD dosing. Treatments were administered by oral gavage (p.o.) in a volume of […]. Body weight was assessed immediately before dosing and volume dosed was adjusted accordingly.
Individual body weight was recorded twice weekly, with mice being monitored daily for clinical signs of toxicity for the duration of the study. Mice were euthanized using carbon dioxide when their tumor volume reached 2,000 mm^3, the tumor was ulcerated, or body weight loss exceeded 20%.
Tumor volume was calculated using the formula: V=0.5×(a×b^2) where a and b are the long and short diameters of the tumor, respectively.

`CC1(C)CCC(CN2CCN(c3ccc(C(=O)NS(=O)(=O)c4ccc(NCC5CCOCC5)c([N+](=O)[O-])c4)c(Oc4cnc5[nH]ccc5c4)c3)CC2)=C(c2ccc(Cl)cc2)C1` [Venetoclax, reference compound] was tested, and the “Mean Tumor Volume (Day 10) (mm^3 ± SEM)” value (15 mg/kg QD × 10 p.o.) was 976.6 ± 64.0 mm^3, the “TGI (Day 10)” value (15 mg/kg QD × 10 p.o.) was 44% and the “Mean Tumor Volume (Day 10) (mm^3 ± SEM)” value (50 mg/kg QD × 10 p.o.) was 711.8 ± 49.7 mm^3. The “TGI (Day 10)” value (50 mg/kg QD × 10 p.o.) was 65%, the “Mean Tumor Volume (Day 10) (mm^3 ± SEM)” value (100 mg/kg QD × 10 p.o.) was 530.4 ± 75.4 mm^3 and the “TGI (Day 10)” value (100 mg/kg QD × 10 p.o.) was 80%.
